According to ChEMBL document CHEMBL1158810, “Efficiency of foam fractionation for the enrichment of nonpolar compounds from aqueous extracts of plant materials” (J Nat Prod, 2005):

Test: Octanol-water partition coefficient, log POW of the compound
Assay type: physicochemical
Settings: not given

Row | logP | Compound
1 | 1.15 | COc1cc(/C=C/C(=O)CC(=O)/C=C/c2ccc(O)c(OC)c2)ccc1O [CURCUMIN]

Same assay, conditions: read-out: logP

Row | logP | Compound
2 | 0.67 | Oc1cc(O)c2c(c1)O[C@H](c1ccc(O)c(O)c1)[C@H](O)C2 [(-)-EPICATECHIN]
3 | 4.19 | CC1=C(/C=C/C(C)=C/C=C/C(C)=C/C=C/C=C(C)/C=C/C=C(C)/C=C/C2=C(C)CCCC2(C)C)C(C)(C)CCC1 [BETA CAROTENE]
4 | 1 | COc1cc(/C=C/C(O)=C/C(=O)/C=C/c2ccc(O)cc2)ccc1O [DEMETHOXYCURCUMIN]
5 | 3.89 | CC1=C[C@H](O)CC(C)(C)[C@H]1/C=C/C(C)=C/C=C/C(C)=C/C=C/C=C(C)/C=C/C=C(C)/C=C/C1=C(C)C[C@@H](O)CC1(C)C [LUTEIN]
6 | 0.07 | O=C(O[C@@H]1Cc2c(O)cc(O)cc2O[C@@H]1c1ccc(O)c(O)c1)c1cc(O)c(O)c(O)c1 [EPICATECHIN GALLATE]
7 | 3.01 | CC(C)=CCC1=C(O)C(C(=O)CC(C)C)=C(O)[C@](O)(CC=C(C)C)C1=O
8 | 2.92 | CC(C)=CCC1=C(O)C(C(=O)C(C)C)=C(O)[C@](O)(CC=C(C)C)C1=O
9 | 0.85 | O=C(/C=C/c1ccc(O)cc1)CC(=O)/C=C/c1ccc(O)cc1 [BISDEMETHOXYCURCUMIN]
10 | -0.15 | C[C@@H]1O[C@@H](O[C@H]2[C@H](Oc3cc(O)c4c(c3)O[C@H](c3ccc(O)cc3)CC4=O)O[C@H](CO)[C@@H](O)[C@@H]2O)[C@H](O)[C@H](O)[C@H]1O [NARINGIN]
11 | -0.21 | COc1ccc([C@@H]2CC(=O)c3c(O)cc(O[C@@H]4O[C@H](CO[C@@H]5O[C@@H](C)[C@H](O)[C@@H](O)[C@H]5O)[C@@H](O)[C@H](O)[C@H]4O)cc3O2)cc1O [HESPERIDIN]
12 | 0.53 | Oc1cc(O)c2c(c1)O[C@H](c1ccc(O)c(O)c1)[C@@H](O)C2 [CIANIDANOL]

Row | Compound | logP
13 | O=C(O[C@@H]1Cc2c(O)cc(O)cc2O[C@H]1c1cc(O)c(O)c(O)c1)c1cc(O)c(O)c(O)c1 [GALLOCATECHIN GALLATE] | 0.12
14 | Oc1cc(O)c2c(c1)O[C@H](c1cc(O)c(O)c(O)c1)[C@H](O)C2 [EPIGALLOCATECHIN] | 0.13
15 | O=C(O[C@@H]1Cc2c(O)cc(O)cc2O[C@@H]1c1cc(O)c(O)c(O)c1)c1cc(O)c(O)c(O)c1 [EPIGALOCATECHIN GALLATE] | 0.09
